# Measurements reported in patent publication US6525054B1, “Cyanoiminoquinoxaline derivatives” (Shionogi & Co., Ltd., priority 1998, dated 2003).
# Structures can show the parent of a compound that is named as a salt.
# Assays:
# [1] = target: T1, glycine-binding site of NMDA receptor complex (Rattus norvegicus, UniProt P35439); experiment: Receptor affinity: [3H]glycine binding to rat cerebral cortex membrane fraction; set-up: species or system Slc-Wistar rat; details: 100 nM [3H]glycine, 0° C. 10 min
# T1 construct: from tissue; host or cells: rat cerebral cortex membrane fraction (Triton X-100 treated)
# Method: (§1) As to 2-cyanoimino-1,4-dihydro-7-(1,4-dihydro-4-oxo-1-pyridyl)-6-nitro-3-quinoxaline monosodium salt (hereinafter referred to as compound 2(2)) obtained in Example 2(2), the affinity for the AMPA receptor and glycine-binding site of the NMDA receptor was determined as follows.
# Cerebral cortex of Slc-Wistar rat (body weight: 250˜300 g) was homogenized with 20 times volume of 5 mM Tris-acetate buffer (pH 7.4) containing 1 mM EGTA, 0.1 mM PMSF and 0.01% bacitracin […] and re-suspended (×4 times). The resultant suspension was restored at −80° C. until use. The froze suspension was thawed at room temperature and incubated at 2° C. in 0.08% triton X-100 solution for 10 min, then the mixture was washed 2 times and suspended into 50 mM Tris-acetate buffer (pH 7.4), to give a membrane fraction. The membrane fraction was incubated with 100 nM [^3H]glycine and a test compound of various concentrations at 0° C. for 10 min. The mixture was diluted and collected by filtration with Whatman GF/C paper to terminate the reaction, then the radioactivity of ^3H remained on the filter was determined with a liquid scintillation counter. The non-specific binding was determined using 1 mM non-radioactive glycine to calculate the IC50 value.
# cerebral infarction = experiment: Inhibition effect on cerebral infarction (MCA occlusion/reperfusion); assay type: in vivo, Slc-Wistar rat; details: 24 hr of reperfusion
# Text: As to compound 2(2), the inhibition effect on cerebral infarction was examined. […] Briefly the animals were anesthetized with halothane (FLUOTHANE, Takeda Chemical Industries Ltd.). After median incision of the neck skin, the right external carotid artery (ECA) was carefully dissected. A coated nylon thread (#4-0, 17.5 mm, Nitcho Kogyo Co. Ltd.) was inserted from the lumen of the ECA to the right internal carotid artery to occlude the origin of the right middle cerebral artery. After surgery, anesthesia was immediately discontinued. […] After 1 hr of MCA occlusion, the thread was removed to allow reperfusion under halothane anesthesia. Body temperature was maintained at 37° C. with a heating pad during ischemic and reperfusion surgery.
# The test compound was administered from 15 min after reperfusion for 1 hr by continuous infusion via a catheter (Clay Adams; PE-20) inserted into the femoral vein in a volume of 4 ml/kg/hr.
# After 24 hr of reperfusion following 1 hr of MCA occlusion, rat was perfused with physiological saline containing heparin under pentobarbital anesthesia and the brain were removed after decapitation. The brain was cut into 12 coronal sections at 1 mm intervals using tissue chopper (McLWAIN) and immersed in saline containing 2% 2,3,5-triphenyltetrazolium-Cl (Wako Pure Chemical Industries, Ltd.) for 15 min. The stained brain sections were fixed by 10% formalin neutral buffered solution and infarct areas were quantified by an image analyzer system (OPTIMAS, Ver6.0) following scanning (Scantouch210, Nikon).
# AMPA-induced seizure = experiment: Anticonvulsant effect on AMPA-induced seizure; assay type: in vivo, Slc-ddY mouse; details: iv; mouse, i.v. 1 min before AMPA 2 nmol/5 μL i.c.v., observed 15 min, Probit method
# Method: The anticonvulsant effect of compound 2(2) on AMPA-induced seizure was determined. According to the method described in J. T. Haley and W. G. McCormich, Br. J. Pharmacol. 12, 12-15(1957), AMPA 2 nmol/5 μL was intracerebroventricular administered to the cerebral ventricle of Slc-ddY mouse (4-5 weeks, male). The test compound, in a volume of 0.1 mL /10 g, was intravenously administered 1 min before the AMPA administration. The convulsion was examined by observing and checking, for 15 min from the AMPA administration, the reveal of jumping, wild-running, […] convulsion and tonic convulsion, then the ED50 value was calculated by Probit method.
# AMPA receptor = experiment: Receptor affinity: [3H]AMPA binding to rat cerebral cortex membrane fraction; set-up: species or system Slc-Wistar rat; details: 30 nM [3H]AMPA, 0° C. 30 min
# Method: as §1
# Cerebral cortex of Slc-Wistar rat (body weight: 250˜300 g) was homogenized with 10 times volume of 30 mM Tris-acetate buffer (pH 7.1) containing 2.5 mM CaCl2, then the mixture was centrifugalized (30,000×g, 15 min) and re-suspended (×3 times). The resultant suspension was restored at −80° C. until use. The froze suspension was thawed at room temperature and suspended into 30 mM Tris-acetate buffer (pH 7.1) containing 2.5 mM CaCl2 and 100 mM KSCN, to give a membrane fraction. The membrane fraction was incubated with 30 nM [^3H]AMPA and a test compound of various concentrations at 0° C. for 30 min. The mixture was diluted and collected by filtration with Whatman GF/C filter to terminate the reaction, then the radioactivity of ^3H remained on the filter was determined with a liquid scintillation counter. The non-specific binding was determined using 1 mM non-radioactive glutamate to calculate the IC50 value.
# kidney = experiment: Nephrotoxicity; assay type: in vivo; details: 100 mg/kg i.v. bolus, SD rat, 24 hr later
# Method: Compound 2(2) was intravenously administered by a bolus of 100 mg/kg to SD rat (9-10 weeks), which was killed 24 hr later. The both-side kidneys were immediately extracted from the rat. After measuring the weight, one kidney was embedded in paraffin to give a tissue preparation. The other kidney was homogenized, then the extract was subjected to liquid chromatography to determine the concentration of compound 2(2).
smiles,measurement,setting,value
"N#CN=c1[nH]c2cc(-n3ccc(=O)cc3)c([N+](=O)[O-])cc2[nH]c1=O [compound 2(2), 2-cyanoimino-1,4-dihydro-7-(1,4-dihydro-4-oxo-1-pyridyl)-6-nitro-3-quinoxaline monosodium salt]",IC50,[1],7.5 µM
same,"Infarct area at cerebral cortex (% of saline, mean ± standard error)",cerebral infarction; 0.3 mg/kg/h i.v. infusion for 1 hr from 15 min after reperfusion,79.55 ± 13.99 % of saline
same,"Infarct area at cerebral cortex (% of saline, mean ± standard error)",cerebral infarction; 1 mg/kg/h i.v. infusion for 1 hr from 15 min after reperfusion,55.99 ± 11.77 % of saline
same,"Infarct area at cerebral cortex (% of saline, mean ± standard error)",cerebral infarction; 3 mg/kg/h i.v. infusion for 1 hr from 15 min after reperfusion,50.34 ± 10.14 % of saline
same,"Infarct area at cerebral cortex (% of saline, mean ± standard error)",cerebral infarction; 10 mg/kg/h i.v. infusion for 1 hr from 15 min after reperfusion,46.71 ± 15.24 % of saline
same,ED50,AMPA-induced seizure,6.9 mg/kg
same,IC50,AMPA receptor,0.034 µM
same,Kidney tissue pathology,kidney,no pathological unusual
same,Weight of the kidney compared to the vehicle group,kidney,has not changed
same,Concentration of compound in the kidney (liquid chromatography),kidney; kidney homogenate,not detected
